# Assay results: patent US11739083B2, “Disposable sensor chip with reagent including 2-substituted benzothiazolyl-3-substituted phenyl-5-substituted sulfonated phenyl-2H-tetrazolium salt” (TERUMO KABUSHIKI KAISHA, priority 2016, dated 2023)
# Assays:
# [1] = Maximum absorption wavelength (λmax) of formazan-nickel chelate by spectrophotometer; type: physicochemical; conditions: chelate of formazan and nickel ion, aqueous MOPS, cell length 10 mm, n=1
# Description: 10 mM aqueous solution of MOPS was added to each of the formazan compounds so as to obtain a final concentration of […], and thereby 100 μL of a sample was produced. At this time, all of the samples were red-brown in color. Apart from this, a 1 M aqueous solution of nickel ion was produced.
# For mixed solutions of various compounds in an aqueous solution of formazan and an aqueous solution of nickel, the spectra were measured with a spectrophotometer (measurement cell length: 10 mm) (n=1). Based on each of the spectra, the maximum absorption wavelength (λmax) (nm) of each of the compounds in formazan was determined. From FIG. 1, it is understood that the maximum absorption wavelength (λmax) of the chelate compound of formazan compound 1 and nickel ion is 630 nm.
# The absorbance at the maximum absorption wavelength is denoted as 100%.
# [2] = Evaluation Example 3: estimation of molar extinction coefficient; type: physicochemical; conditions: colored chelate compound of formazan and Ni2+ at λmax=635 nm; FIG. 18
# Description: A measurement solution was produced in the same manner as described in the section for the evaluation of the chelation rate and the maximum absorption wavelength (λmax), using the tetrazolium compound 1 of Example 1.
# Estimation of the molar extinction coefficient was carried out using the blood glucose meter sensor of FIG. 13. At this time, it is assumed that tetrazolium compound 1 reacts with glucose at a ratio of 1:1 (molar ratio). The concentration (mol/L) of β-glucose include in the spotted aqueous glucose solution was designated as x, and the value obtained by calculating the absorbance at 630 nm of the blood glucose meter sensor having aqueous glucose solution spotted thereon, to a value per 1 cm, was designated as y. The gradient of a straight line obtained at that time is designated as the molar extinction coefficient (calculated based on a glucose molecular weight 180.16, and a β-glucose ratio in the solution of 62%).
# FIG. 18 presents a graph obtained when the concentration (mol/L) of β-glucose was used as x value, and the absorbance at λmax=635 nm of colored chelate compound of formazan and Ni^2+, which was calculated into a value per 1 cm (abs/cm), was used as y value. From the graph, the molar extinction coefficient at λmax=635 nm of a colored chelate compound of formazan and Ni^2+ is ε=22,594 L/mol·cm.
# [3] = Evaluation of sensitivity (colour development with glucose, GDH-FAD, m-PMS, nickel; gradient versus WST-4)
# Description: Separately, 100 μL of RO water was added to 7 mg of a glucose dehydrogenase that uses flavin adenine dinucleotide (FAD) as a coenzyme (GDH-FAD) (manufactured by TOYOBO CO., LTD., product No.: GLD-351), the enzyme was dissolved, and thus a GDH solution was produced. Furthermore, 200 μL of RO water was added to 3.5 mg of 1-methoxy-5-methylphenazium methyl sulfate (m-PMS) (manufactured by DOJINDO LABORATORIES), and the compound was dissolved therein. Thus, an s-PMS solution was produced. 1 mL of RO water was added to 129 mg of nickel chloride to dissolve the salt, and thus a nickel solution was produced.
# 40 μL of the reaction solution was added to 10 μL each of an aqueous glucose solution at a concentration of 125 mg/dL, an aqueous glucose solution at a concentration of 250 mg/dL, and an aqueous glucose solution at a concentration of 1,000 mg/dL, and the mixtures were allowed to develop color. The spectra were measured with a spectrophotometer (measurement cell length: 50 μm) (n=1). […] Thus, the gradient (gradientsample) was determined.
# 40 μL of the control reaction solution was added to 10 μL each of an aqueous glucose solution at a concentration of 125 mg/dL, an aqueous glucose solution at a concentration of 250 mg/dL, and an aqueous glucose solution at a concentration of 1,000 mg/dL, and the mixtures were allowed to develop color. The spectra were measured with a spectrophotometer (measurement cell length: 50 μm) (n=1). For each of the spectra, the absorbance at 650 nm, which is the measurement wavelength (λmax) of WST-4, was measured, and the glucose concentration in the colored solution and the absorbance were plotted on the horizontal axis and the vertical axis, respectively. Thus, the gradient (gradientWST-4) was determined.
# FIG. 2 is a graph showing the relationship between the glucose concentration and the absorbance of produced formazan in relation to the tetrazolium compound 1 and WST-4. […] Meanwhile, the gradient serves as an index for the color development intensity of each compound. Therefore, when the value obtained by dividing the gradientsample by the gradientWST-4 (gradientsample/gradientWST-4) is greater than one-fold, it is implied that the intensity of color development on the longer wavelength side is higher compared to WST-4, which is a well-known indicator reagent.
# [4] = Evaluation of water-solubility (visual check for precipitate); type: physicochemical; conditions: RO water / 0.5 M MOPS solution (1:1), aqueous buffer, thermodynamic from solid; RO water and 0.5 M MOPS pH 7.2; 200, 100, 20 mM; stirred 5 minutes
# Description: After the mixture was stirred for 5 minutes, a precipitate was checked by visual inspection. […] After the mixture was stirred for 5 minutes, a precipitate was checked by visual inspection. […] After the mixture was stirred for 5 minutes, a precipitate was checked by visual inspection.
structure (smiles),measurement,setting,value
COc1ccc2nc(-n3nc(-c4ccc(S(=O)(=O)O)cc4S(=O)(=O)[O-])n[n+]3-c3ccc(OC)c(S(=O)(=O)O)c3)sc2c1 [Example 1],Maximum absorption wavelength (λmax),[1],630 nm
same,molar extinction coefficient ε,[2],"22,594 L/mol·cm"
same,ratio gradientsample/gradientWST-4,[3]; FIG. 2,about 2.4
same,gradient (absorbance versus glucose concentration),"[3]; FIG. 2, compound 1 at its λmax with nickel, WST-4 at 650 nm without nickel",0.0063
same,"Sensitivity, comparison with Comparative Example 5 (rating)","[3]; gradientsample/gradientWST-4, absorbance at λmax versus glucose concentration, cell length 50 μm",⊙ (gradientsample/gradientWST-4) was 2 or greater)
same,solubility at 5 min,[4],> 200 mM
